Data as given in patent US11752188B2, “Compositions and methods for nutritional supplements” (DailyColors Health Inc., priority 2020, dated 2023).

Experiments:
[1] = molecular target: T1, recombinant human CD39 (Homo sapiens, UniProt P49961); test: CD39 in vitro enzymatic assay (ATP, colorimetric 630 nm); assay type: biochemical; settings: TABLE 81;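 further: test compound preincubated 30 min with enzyme, then 30 min reaction with ATP at room temperature, absorbance after detection reagent, 100% activity without compound, 0% without enzyme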
T1 construct: purchased BPS Bioscience 71284 (enzyme); kit #79278
T1 sequence (P49961 1-510): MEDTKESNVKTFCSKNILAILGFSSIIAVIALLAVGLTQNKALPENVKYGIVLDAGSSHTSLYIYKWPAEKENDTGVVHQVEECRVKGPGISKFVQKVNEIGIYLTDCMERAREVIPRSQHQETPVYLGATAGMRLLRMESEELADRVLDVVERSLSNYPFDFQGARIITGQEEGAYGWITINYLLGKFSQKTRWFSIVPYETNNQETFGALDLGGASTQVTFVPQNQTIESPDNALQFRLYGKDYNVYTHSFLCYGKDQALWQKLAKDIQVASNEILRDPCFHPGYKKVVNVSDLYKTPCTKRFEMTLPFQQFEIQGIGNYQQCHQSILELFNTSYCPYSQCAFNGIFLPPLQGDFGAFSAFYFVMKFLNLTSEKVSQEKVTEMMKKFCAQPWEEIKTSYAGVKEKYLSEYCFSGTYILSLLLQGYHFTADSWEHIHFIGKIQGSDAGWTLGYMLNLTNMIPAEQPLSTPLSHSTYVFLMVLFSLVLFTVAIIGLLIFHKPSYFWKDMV
Experimental: The CD39 enzymatic reactions were conducted in duplicate at room temperature for 30 minutes in a 50 μl mixture containing assay buffer, ATP, CD39 enzymes, and the test compound. Test compounds were preincubated with the enzyme for 30 minutes. Reactions were started by addition of the substrate. The 50 μl reactions were carried out in a 96-well transparent plate. After enzymatic reactions, 100 μl of Colorimetric Detection Reagent was added to the reaction mix. After a 15 minutes incubation, absorbance was measured using a Tecan plate reader at 630 nm.

[2] = molecular target: T2, recombinant human CD73 (Homo sapiens, UniProt P21589); test: CD73 in vitro enzymatic assay (colorimetric 630 nm); assay type: biochemical; settings: TABLE 91
T2 construct: purchased BPS Bioscience 71184 (enzyme); kit #72055
T2 sequence (P21589 27-549): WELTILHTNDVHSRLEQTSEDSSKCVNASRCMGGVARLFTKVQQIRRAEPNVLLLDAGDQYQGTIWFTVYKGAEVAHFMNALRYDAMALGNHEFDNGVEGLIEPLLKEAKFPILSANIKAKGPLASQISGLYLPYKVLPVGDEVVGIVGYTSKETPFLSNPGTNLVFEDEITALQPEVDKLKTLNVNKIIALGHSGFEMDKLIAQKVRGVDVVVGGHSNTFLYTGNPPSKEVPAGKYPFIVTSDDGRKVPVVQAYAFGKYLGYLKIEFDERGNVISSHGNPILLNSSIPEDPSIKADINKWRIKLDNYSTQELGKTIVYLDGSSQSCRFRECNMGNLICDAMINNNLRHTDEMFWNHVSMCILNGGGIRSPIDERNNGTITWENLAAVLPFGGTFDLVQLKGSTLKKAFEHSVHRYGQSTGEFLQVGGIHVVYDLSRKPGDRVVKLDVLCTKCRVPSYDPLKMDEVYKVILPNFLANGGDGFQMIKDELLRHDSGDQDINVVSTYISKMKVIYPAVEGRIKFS
From the text: Here, D5 is the Yellow Blend, D9 is the Purple Blend, D21 is the Green Blend, D13 is the Red Blend, and D31 is CBD. As before, the red blend included Apple Extract, Pomegranate Extract, Tomato Powder, Beet; the green blend included Olive Extract, Rosemary Extract, Green Coffee Bean Extract, Kale; the orange/yellow blend included Onion Extract, Ginger Extract, Grapefruit Extract, Carrot; and the purple/blue blend included Grape, Blueberry Extract, Currant, Elderberry.
Assay Conditions: In general, all assays points were done by following the CD39 and CD73 Inhibitor Screening Assay Kit protocol (BPS Bioscience, #79278 and 72055, respectively). The CD73 enzymatic reactions were conducted in duplicate at room temperature for 30 minutes in a 50 μl mixture containing assay buffer, […], CD73 enzymes, and the test compound. Test compounds were preincubated with the enzyme for 30 minutes. Reactions were started by addition of the substrate. The 50 μl reactions were carried out in a 96-well transparent plate. After enzymatic reactions, 100 μl of Colorimetric Detection Reagent was added to the reaction mix. After a 15 minutes incubation, absorbance was measured using a Tecan plate reader at 630 nm.
Data Analysis: Enzyme activity assays were performed in duplicates at each concentration. The Absorbance intensity data were analyzed and compared. In the absence of the compound, the intensity in each data set was defined as 100% (Ce) activity. In the absence of enzyme, the intensity in each data set was defined as 0% (C0) activity.

## C=C(C)[C@@H]1CCC(C)=C[C@H]1c1c(O)cc(CCCCC)cc1O [D31, CBD]
[1]; 0.0004%
  Activity (%) Rep. 1: 93%
  Activity (%) Rep. 2: 91%
  Inhibition (%): 8%
  Net absorbance Rep. 1: 0.50
  Net absorbance Rep. 2: 0.49
[1]; 0.002%
  Activity (%) Rep. 1: 90%
  Activity (%) Rep. 2: 92%
  Inhibition (%): 9%
  Net absorbance Rep. 1: 0.48
  Net absorbance Rep. 2: 0.49
[1]; 0.01%
  Activity (%) Rep. 1: 96%
  Activity (%) Rep. 2: 103%
  Inhibition (%): 1%
  Net absorbance Rep. 1: 0.52
  Net absorbance Rep. 2: 0.55
[2]; 0.0004%
  Activity (%) Rep. 1: 104%
  Activity (%) Rep. 2: 101%
  Inhibition (%): 0%
  Net absorbance Rep. 1: 0.35
  Net absorbance Rep. 2: 0.34
[2]; 0.002%
  Activity (%) Rep. 1: 103%
  Activity (%) Rep. 2: 100%
  Inhibition (%): 0%
  Net absorbance Rep. 1: 0.35
  Net absorbance Rep. 2: 0.34
[2]; 0.01%
  Activity (%) Rep. 1: 106%
  Activity (%) Rep. 2: 98%
  Inhibition (%): 0%
  Net absorbance Rep. 1: 0.35
  Net absorbance Rep. 2: 0.33
